In assay [1] the target is T1, human NLRP3 (Homo sapiens, UniProt Q96P20). In words: Human PBMC NLRP3 Assay (LPS priming, ATP stimulation, cytokine measurement). Also on record: host or cells: human PBMCs (A2); human whole blood from healthy volunteers (A3). It is filed as cell-based. To be noted: for pIC50: human PBMC, LPS + ATP. Here is the method: Reagents: Human PBMCs (Normal): iXCells Cat #10HU-003; RPMI 1640 medium with GlutaMAX: ThermoFisher Cat #61870127 (Complete Media: 4.5 g/L D-glucose, 10% FBS, 100 mM NaPyr, 1% Pen/Strep, 10 mM HEPES and 0.05 mM of ®-mercaptoethanol; Assay Media: 4.5 g/L D-glucose, 100 mM NaPyr, 1% Pen/Strep, 10 mM HEPES and 0.05 mM of mercaptoethanol; 96-well V-bottom Plates: Costar Cat #3894; LPS (E. coli O26:B6): Sigma Cat #L2654, stock 5 mg/mL in PBS; ATP: Sigma Cat #A6419, prepared in a 250 mM stock in 1 M HEPES (adjusted to pH 7.4).
Cryopreserved PBMCs were rapidly thawed in a 37° C. water bath for 2 min. Cells were then centrifuged at 1200 RPM for 5 min and resuspended in ˜50 mL of fresh RPMI 1640 Complete Medium. A count was undertaken using a hemocytometer and adjusted to 2.5×10^5 cells/mL. V-shaped 96-well plates were seeded with 200 μL of PBMCs (5×10^4) per well and subsequently incubated overnight at 37° C. with 5% CO2. Assay Media was then prepared containing 100 ng/ml of LPS. PBMCs were then centrifuged at 1,200 RPM for 5 min, serum containing media was aspirated, and 150 μL/well of Assay Media+LPS was immediately added. Assay Media without LPS was added in the untreated control wells. Cells were then primed with LPS for 4 h at 37° C. with 5% CO2. A concentration response curve (CRC) was prepared of 1000× test compound in 100% DMSO. The CRC was then diluted 1:50 in Assay Media and then further diluted by 1:5× in Assay Media resulting in a final 4×CRC in 0.4% DMSO/Assay Media. 50 μL/well of 4× test compound CRC or vehicle (0.4% DMSO/Assay Media) was then transferred into each well and subsequently incubated for 30 min at 37° C. with 5% CO2. Cells were stimulated by adding 4 μL of 250 mM ATP, using a 250 mM stock prepared in 1 M Hepes without further dilution (for a final concentration of 5 mM), for 1 h at 37° C. with 5% CO2 Plates were then centrifuged at 1200 RPM for 5 min; and 50 μl of the media was transferred to a clean 96-well storage plate for cytokine measurements using the mesoscale platform, and stored at −80° C. until analyzed. Compounds were added 30 minutes before priming the cells with LPS when TNFα was required to be quantified in the cytokine panel to confirm selectivity.
PBMC NLRP3 IC50 assay results, as a measurement of cellular potency, are provided in Table B. “A” activity=<0.01 uM; “B” activity=0.01-0.1 uM; “C” activity=>0.1-0.5 uM; “D” activity=>0.5 uM.

In assay [2] the target is T1, human NLRP3. In words: Scintillation Proximity (SPA) NLRP3 Assay, displacement of 3H-MCC950. The assay is classed as binding. To be noted: for pIC50: displacement of 3H-MCC950 from human NLRP3; for fold improvement in binding activity (SPA IC50): relative to Comparative Example B1. A digest of the protocol: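 Displacement of radioligand 3H-MCC950 (125 nM final) from 350 nM human NLRP3, read by scintillation proximity after 6 h equilibration with PVT beads. Buffer: 20 mM HEPES pH 7.5, 150 mM NaCl, 5 mM MgCl2, 100 μM ADP; compound preincubated 15 min, ligand 60 min, RT. IC50 from specific binding.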
Background: Scintillation proximity formats need no separation of bound from free tracer.

The target in assay [3] is T1, human NLRP3. The experiment in a line: Human Whole Blood (hWB) NLRP3 Assay (LPS/ATP, IL-1β). The assay is classed as cell-based. Also on record: host or cells: human whole blood from healthy volunteers (A3). To be noted: Table B, activity class. The method, then:
Human whole blood is drawn from healthy volunteers after obtaining written informed consent. Heparin lithium coated tubes are used to collect blood from volunteers. Blood samples are distributed on 96 well plates using 90 μl per well.
Priming procedure: Priming is performed by adding 5 μl of LPS (O26:B6; Sigma L-2654) at a final concentration of 1 μg/ml for 4.5 hours in a humidified incubator with 37° C., 5% CO2. Thirty minutes prior to NLRP3 activation, 5 μl of a 20× compound solution or vehicle (2% dimethylsulfoxide (DMSO)) is added to each well and plates were incubated on a shaker (450 rpm) in a humidified incubator with 37° C., 5% CO2.
Alternative priming procedure: Thirty minutes prior to LPS priming, 5 μl of a 20× compound solution or vehicle (2% dimethylsulfoxide (DMSO)) is added to each well and plates were incubated on a shaker (450 rpm) in a humidified incubator with 37° C., 5% CO2. Priming is performed by adding 5 μl of LPS (O26:B6; Sigma L-2654) at a final concentration of 1 μg/ml for 5 hours in a humidified incubator with 37° C., 5% CO2.
Activation is then performed by adding 3.3 μl of a 31×ATP solution per well. At the end of the 30 minutes stimulation, the plates are centrifuged (800 g, 10 min, room temperature) and the plasma from each well is frozen at −80° C. IL-1β levels in the supernatant were analyzed using a mesoscale discovery assay (MSD K151TUK) according to the manufacturers' instructions.
There is no detectable difference in assay results using the priming procedure versus the alternative priming procedure.
hWB NLRP3 IC50 assay results, as a measurement of whole blood potency, are provided in Table B. “A” activity=<1 uM; “B” activity=1-2 uM; “C” activity=>2-3 uM; “D” activity=>3 uM.

Consider 20 compounds from patent US20260008768A1, “UREA DERIVATIVES FOR INHIBITING NLRP3 AND USES THEREOF” (VENTUS THERAPEUTICS U.S., INC., priority 2023, published 2026).

pIC50: −log10 of the molar value.

T1 sequence (Q96P20 whole entry): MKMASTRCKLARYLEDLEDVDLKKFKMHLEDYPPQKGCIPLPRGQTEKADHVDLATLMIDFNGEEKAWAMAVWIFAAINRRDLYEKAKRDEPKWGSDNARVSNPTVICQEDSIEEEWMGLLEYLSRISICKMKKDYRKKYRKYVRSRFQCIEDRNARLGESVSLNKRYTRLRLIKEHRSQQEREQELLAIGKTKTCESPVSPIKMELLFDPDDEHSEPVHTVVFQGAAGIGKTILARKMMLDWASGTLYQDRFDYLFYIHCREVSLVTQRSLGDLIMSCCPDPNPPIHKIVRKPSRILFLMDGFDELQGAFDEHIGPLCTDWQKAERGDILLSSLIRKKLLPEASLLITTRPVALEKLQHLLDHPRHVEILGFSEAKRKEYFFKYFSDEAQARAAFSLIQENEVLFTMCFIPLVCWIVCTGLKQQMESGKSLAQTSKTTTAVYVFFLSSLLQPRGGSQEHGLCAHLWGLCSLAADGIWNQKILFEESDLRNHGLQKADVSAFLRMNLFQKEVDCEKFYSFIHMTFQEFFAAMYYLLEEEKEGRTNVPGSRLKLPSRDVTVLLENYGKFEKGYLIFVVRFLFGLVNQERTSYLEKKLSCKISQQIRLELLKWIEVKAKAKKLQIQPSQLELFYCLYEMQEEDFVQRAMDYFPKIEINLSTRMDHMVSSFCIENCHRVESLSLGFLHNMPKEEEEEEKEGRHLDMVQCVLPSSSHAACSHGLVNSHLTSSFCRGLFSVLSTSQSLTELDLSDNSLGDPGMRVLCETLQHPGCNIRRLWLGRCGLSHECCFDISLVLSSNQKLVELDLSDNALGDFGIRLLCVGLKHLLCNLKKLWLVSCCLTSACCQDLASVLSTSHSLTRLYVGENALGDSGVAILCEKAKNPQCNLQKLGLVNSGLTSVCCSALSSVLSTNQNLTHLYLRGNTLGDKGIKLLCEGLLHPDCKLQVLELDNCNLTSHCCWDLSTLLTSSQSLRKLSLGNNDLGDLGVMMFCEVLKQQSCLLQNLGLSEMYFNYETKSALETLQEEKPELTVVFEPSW

Turning to `C[C@@H]1CCN(c2nnn[nH]2)C[C@H](NC(=O)N(C)c2ccc(Cl)cc2Cl)C1` (single isomer, unassigned) [7A*], the pIC50 – broadly, the IC50 on a negative log10 scale, so that one unit is a factor of ten – in assay [1] (Table B, activity class) was over 8.00; in assay [1] (Table C), 8.05; in assay [2] (Table B, activity class), over 6.00; in assay [2] (Table C), 6.62.

For the compound `C[C@@H]1CCN(c2nnn[nH]2)C[C@H](NC(=O)N(C)c2ccc(C3CC3)cc2)C1` (single isomer, unassigned) [8A*], the pIC50 is over 8.00 in assay [1] (Table B, activity class) and over 6.00 in assay [2] (Table B, activity class).

On to `C[C@@H]1CCN(c2nnn[nH]2)C[C@H](NC(=O)N(C)c2ccc(C(F)(F)F)c(F)c2)C1` (single isomer, unassigned) [9A*], for which the pIC50 was 7.00 to 8.00 in assay [1] (Table B, activity class) and over 6.00 in assay [2] (Table B, activity class).

In the case of `C[C@@H]1CCN(c2nnn[nH]2)C[C@H](NC(=O)N(C)c2ccc(C(F)F)c(F)c2)C1` (single isomer, unassigned) [22A*], the pIC50 is 5.70 to 6.00 in assay [3] and over 6.00 in assay [2] (Table B, activity class).

Regarding `C[C@@H]1CCN(c2nnn[nH]2)C[C@H](NC(=O)N(C)c2ccc(OC(F)(F)F)c(OC(F)F)c2)C1` (single isomer, unassigned) [25A*], the pIC50 was 5.70 to 6.00 in assay [3] and over 6.00 in assay [2] (Table B, activity class).

As to `C[C@@H]1CCN(c2nnn[nH]2)C[C@H](NC(=O)N(C)c2cnc(C(F)(F)F)cn2)C1` (single isomer, unassigned) [32A*], the pIC50 in assay [3] is under 5.52; in assay [2] (Table B, activity class), 4.30 to 5.00.

Consider `C[C@H]1CCN(c2nnn[nH]2)C[C@@H](NC(=O)N(C)c2ccc(OC(F)F)c(F)c2F)C1` (single isomer, unassigned) [40D*], for which the pIC50 in assay [3] was under 5.52; in assay [2] (Table B, activity class) it was 5.00 to 6.00.

In the case of `C[C@@H]1CCN(c2nnn[nH]2)C[C@H](NC(=O)N(CC2CC2)c2ccc(OC(F)(F)F)cc2)C1` (single isomer, unassigned) [44A*], the pIC50 in assay [3] is 5.52 to 5.70; in assay [2] (Table B, activity class), over 6.00.

Regarding `C[C@@H]1C[C@@H](NC(=O)N(C)c2ccc(OC(F)F)c(F)c2F)[C@H]2CC[C@@H]1N2c1nnn[nH]1` (single isomer, unassigned) [58A*], the pIC50 in assay [3] is over 6.00.

Consider `O=C(Nc1ccc(Cl)cc1)Nc1cccc(-c2nnn[nH]2)c1` [Comparative Example B1, 1-(3-(1H-tetrazol-5-yl)phenyl)-3-(4-chlorophenyl)urea, reference compound], for which the pIC50 is under 5.30 in assay [1] (Table C) and 3.72 in assay [2] (Table C).

With `CN(C(=O)Nc1cccc(-c2nnn[nH]2)c1)c1ccc(Cl)cc1` [Comparative Example B2, 3-(3-(1H-tetrazol-5-yl)phenyl)-1-(4-chlorophenyl)-1-methylurea, reference compound], the pIC50 in assay [1] (Table C) is 5.38; in assay [2] (Table C), 4.90. Further, the “fold improvement in binding activity (SPA IC50)” value in assay [2] is over 15 fold.

In the case of `CN(C(=O)N[C@@H]1CCCN(c2ccccc2)C1)c1ccc(Cl)cc1` [Comparative Example D1, (R)-1-(4-chlorophenyl)-1-methy1-3-(1-phenylpiperidin-3-yl)urea, reference compound], the pIC50 in assay [1] (Table C) was 4.41.

As for `CN(C(=O)N[C@H]1CCCN(c2ccccc2)C1)c1ccc(Cl)cc1` [Comparative Example D2, (S)-1-(4-chlorophenyl)-1-methyl-3-(1-phenylpiperidin-3-yl)urea, reference compound], the negative-log IC50 (pIC50) in assay [1] (Table C) is under 4.00.

With `CN(C(=O)N[C@@H]1CCCN(c2nnnn2C)C1)c1ccc(Cl)cc1` [Comparative Example F, (R)-1-(4-chlorophenyl)-1-methyl-3-(1-(1-methy1-1H-tetrazol-5-yl)piperidin-3-yl)urea, reference compound], in assay [1] (Table C), the pIC50 is 4.81.

In the case of `O=C(N[C@@H]1CCCN(c2nnn[nH]2)C1)c1ccc(Cl)cc1` [Comparative Example G, (R)-N-(1-(1H-tetrazol-5-yl)piperidin-3-yl)-4-chlorobenzamide, reference compound], the pIC50 in assay [1] (Table C) was under 4.00.

Turning to `O=C(N[C@@H]1CCCN(c2ccccc2)C1)c1ccc(Cl)cc1` [Comparative Example J1, (R)-4-chloro-N-(1-phenylpiperidin-3-yl)benzamide, reference compound], the pIC50 in assay [1] (Table C) was under 4.00.

Regarding `O=C(N[C@H]1CCCN(c2ccccc2)C1)c1ccc(Cl)cc1` [Comparative Example J2, (S)-4-chloro-N-(1-phenylpiperidin-3-yl)benzamide, reference compound], in assay [1] (Table C), the pIC50 was under 4.00.

On to `CN(C(=O)N[C@@H]1CCCN(c2nnn[nH]2)C1)c1ccc(Cl)cc1` [Compound 2A, (R)-3-(1-(1H-tetrazol-5-yl)piperidin-3-yl)-1-(4-chlorophenyl)-1-methylurea], for which the pIC50 in assay [1] (Table B, activity class) is 6.30 to 7.00; in assay [1] (Table C), 6.57; in assay [2] (Table B, activity class), 5.00 to 6.00; in assay [2] (Table C), 5.01. For the same compound, the “fold increase in potency as measured by PBMC IC50” value is on record as over 350 fold in assay [1] (relative to Comparative Example A*) and over 15 fold in assay [1] (relative to Comparative Example B2). Besides, the entries for the “fold improvement in potency (PBMC IC50)” value in assay [1] (relative to Comparative Example B1), in assay [1] (relative to Comparative Example C1) and in assay [1] (relative to Comparative Example C2) were over 18 fold, 40 fold and over 200 fold, respectively. Also, the “fold increase in potency (PBMC IC50)” value in assay [1] (relative to Comparative Example D1) is recorded as 146 fold; in assay [1] (relative to Comparative Example D2), over 350 fold; in assay [1] (relative to Comparative Example F), 58 fold; in assay [1] (relative to Comparative Example G), over 350 fold; in assay [1] (relative to Comparative Example H), 39 fold; in assay [1] (relative to Comparative Example J1) it was over 350 fold. Besides, in assay [1] (relative to Comparative Example J2), the “fold increase in potency (PBMC IC50)” value is given as over 350 fold. In addition, the “fold improvement in binding activity (SPA IC50)” value in assay [2] is over 19 fold.

With `CCN(C(=O)N[C@@H]1C[C@H](C)CN(c2nnn[nH]2)C1)c1ccc(Cl)cc1` [Compound 6A, 1-(4-chlorophenyl)-1-ethyl-3-((3R,5S)-5-methyl-1-(1H-tetrazol-5-yl)piperidin-3-yl)urea], the pIC50 in assay [1] (Table B, activity class) was 7.00 to 8.00; in assay [2] (Table B, activity class), over 6.00.

As for `CN(C(=O)N[C@@H]1CCCN(c2nnn[nH]2)C1)c1ccc(Cl)cc1F` [Compound 66, (R)-3-(1-(1H-tetrazol-5-yl)piperidin-3-yl)-1-(4-chloro-2-fluorophenyl)-1-methylurea], the pIC50 in assay [1] (Table B, activity class) was under 6.30; in assay [1] (Table C), 6.05.
